Results: PMC9814548, “Chemoenzymatic synthesis of 3-ethyl-2,5-dimethylpyrazine by L-threonine 3-dehydrogenase and 2-amino-3-ketobutyrate CoA ligase/L-threonine aldolase” (Communications Chemistry, 2021)

Target: T1, CnKBL (Cupriavidus necator, UniProt Q0K313, H138F)
T1 construct: gene kbl; gene cloned in pET-28a (NcoI/XhoI), E. coli BL21(DE3), Ni-Sepharose and gel filtration; dimer; PLP on K246
Test: threonine aldolase activity, coupled alcohol dehydrogenase assay
Format: biochemical
Settings: TA activity not detectable

T1 sequence (Q0K313 entry or part of it H138F): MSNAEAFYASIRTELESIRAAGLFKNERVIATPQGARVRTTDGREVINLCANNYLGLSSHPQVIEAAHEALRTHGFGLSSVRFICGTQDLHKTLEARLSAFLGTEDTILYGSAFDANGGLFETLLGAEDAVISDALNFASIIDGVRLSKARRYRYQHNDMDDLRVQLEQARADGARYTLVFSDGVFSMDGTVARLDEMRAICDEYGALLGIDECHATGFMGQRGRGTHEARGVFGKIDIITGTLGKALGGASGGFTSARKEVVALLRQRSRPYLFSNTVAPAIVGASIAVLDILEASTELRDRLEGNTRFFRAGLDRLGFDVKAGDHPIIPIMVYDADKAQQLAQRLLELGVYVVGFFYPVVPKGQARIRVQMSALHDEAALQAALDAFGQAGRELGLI

C[C@@H](O)[C@H](N)C(=O)O [L-Thr]
threonine aldolase activity, coupled alcohol dehydrogenase assay: TA activity of the H138F variant decreased to an undetectable level compared with CnKBL(WT)
